In patent US20250205173A1, “DERMAL AND TRANSDERMAL ADMINISTRATION OF TREPROSTINIL AND SALTS THEREOF” (CORSAIR PHARMA, INC., priority 2019, published 2025):

Assays:
[1] = In vitro skin permeability assay, vertical Franz diffusion cell; format: in vitro ADME; conditions: human epidermis from different donors, 32° C., N=4 per donor
Description: A skin permeability assay was performed using a vertical Franz diffusion cell having a diffusion area of 0.64 cm^2 and a volume of 7.5 mL. The assay was conducted at 32° C. with continuous stirring. Heat-separated human cadaver epidermis was used in the assay, the epidermis being stored at −20° C. after the heat-stripping procedure. The human epidermis was thawed prior to being mounted on the diffusion cell. Treprostinil was applied on the skin, and the diffusion cell was closed by screw-cap. At various time intervals, whole medium or receptor medium was replaced by fresh medium. Part of the collected medium was used to calculate the cumulative skin permeability of treprostinil at 72 hours. The skin permeability of treprostinil was evaluated using human epidermis from different donors. N=4 replicates were performed for treprostinil tested on human epidermis from a particular donor.

[2] = Skin irritation study of treprostinil reservoir-type transdermal patch, Draize scale; format: in vivo, Göttingen Minipigs; set-up: key to Edema score: 0: No edema; 1: Very slight edema (barely perceptible); 2: Slight edema (edges of area well defined by definite raising); 3: Moderate edema (raised about 1 mm); 4: Severe edema (raised >1 mm and extending beyond area of exposure); key to Erythema score: 0: No erythema; 1: Very slight erythema (barely perceptible); 2: Well-defined erythema; 3: Moderate to severe erythema; 4: Severe erythema (beet redness) to slight eschar formation (injuries in depth); conditions: for Edema score / Erythema score: 10 mg patch
Description: The pig is frequently used in studies involving dermal or transdermal administration of a drug because the skin of the pig is very similar to human skin. Skin irritation following transdermal administration of treprostinil from a reservoir-type transdermal patch was assessed in Göttingen Minipigs® (Marshall BioResources, North Rose, New York). The treprostinil-containing reservoir transdermal patch was a 32 cm^2 circular patch with a 6 cm^2 gel-sealed area and a 26 cm^2 peripheral skin-adhesive area. The placebo reservoir transdermal patch was a 39 cm^2 oval patch with a 12 cm^2 gel-sealed area and a 27 cm^2 peripheral skin-adhesive area. The reservoir of the patches comprised a gel composed of hydroxypropyl cellulose and containing ethanol, isopropyl myristate and 10 mg treprostinil or no active agent for the placebo patch. The reservoir was packaged by heat seal between a backing layer composed of metalized polyester/ethylene-vinyl acetate and a semi-permeable microporous membrane composed of polyethylene. A transparent release liner that protected the gel reservoir area and the peripheral adhesive area was peeled off immediately prior to patch application. The patches had the structure of the patch depicted in FIG. 1. To facilitate patch application (dosing) and to ensure animal safety during the dosing procedure, the minipigs were sedated with the anesthetic Telazol, if necessary, via intramuscular injection at an initial dose of 3-6 mg/kg. Any use of Telazol is indicated in the study data. Both the treprostinil-containing and placebo transdermal patches were applied to the dorsal surface of each of three female Göttingen Minipigs® weighing about 15-25 kg and were left in place for 24 hr. The dosing sites (the entire flank on both sides of the dorsal midline, caudal to the scapula) were carefully clipped with an electric clipper on the day prior to application of the patches and then were carefully washed with room temperature (RT) saline to remove dirt and debris. The prepared area was large enough to accommodate several patches. The dosing sites then were carefully shaved smooth with a razor while not causing any nick or cut. RT saline, but no shaving cream, could be used to assist shaving. The dosing sites were then wrapped with bandaging that was secured with a non-irritating, semi-occlusive tape (e.g., Elastikon tape). The minipigs were then fitted with a jacket. On the day of application of the patches, the jacket and wrapping were removed from the minipigs. The dosing sites were visually inspected to confirm the absence of any abrasion or obvious dermal pathology, and were gently cleaned with an isopropanol wipe and were then allowed to air-dry for at least 5 min. The patches were applied to areas of the skin without any abrasion or obvious dermal pathology by applying firm finger pressure to the peripheral adhesive area of the patches to ensure firm adherence of the peripheral area to the skin. To prevent detachment of the patches, TegadermTM dressing (or an equivalent transparent adhesive dressing, such as PatchProtectTM dressing) was applied over the patches, extending at least 2 inches beyond the edges of the patches and adhering to the peripheral area of the patches and to the skin surrounding the patches. The sites of patch application were wrapped with gauze or […] bandaging (or equivalent) that was secured with a non-irritating, semi-occlusive tape (e.g., Elastikon tape). The minipigs were then fitted with a jacket to prevent patch disturbance. The patches were kept in place at the dosing sites for 24 hr. […] Photographs of the sites of patch application were taken just prior to patch removal, following patch removal, and at 2 (±15 min), 24 (±1 hr), 48, 72, 96, 120, 144 and 168 hours after patch removal. The following scores are based on the Draize scale for scoring skin irritation [J. Draize et al., J. Pharmacol. Exp. Ther., 82:377-390 (1944)]. [table] [table]

[3] = Pharmacokinetics of transdermally delivered treprostinil from reservoir-type patch; conditions: Göttingen, minipig, in vivo, four patches, total 160 mg treprostinil, in place 72 hr, two male minipigs
Text: Pharmacokinetics (PK) following transdermal administration of treprostinil from a reservoir-type transdermal patch was studied in Göttingen Minipigs® (Marshall BioResources). The treprostinil-containing reservoir transdermal patch was a 39 cm^2 oval patch with a 12 cm^2 gel-sealed area and a 27 cm^2 peripheral skin-adhesive area. […] Naïve male Göttingen Minipigs® about 6 months of age at receipt and weighing about 23 kg at patch application were used in the PK study. To facilitate application of the transdermal patch, the minipigs were sedated with Telazol at 3 mg/kg via intramuscular injection. Prior to patch application the dosing sites on the minipigs were prepared similarly as described in Example 2, and patch application was performed similarly as described in Example 2 except that bandaging was reapplied to the sites of patch application once a day. Four transdermal patches containing a total of 160 mg treprostinil were applied at the same time to the dorsal surface of each of two minipigs and were left in place for 72 hr. Blood samples were collected within 1 hr prior to application of the patches; at 3, 6, 12, 24, 48 and 72 hours after application of the patches; and at 0.167, 0.5, 1, 2, 4 and 6 hours after removal of the patches.

[4] = cited from earlier work
[5] = cited from earlier work; remark: listed apart in the source
[6] = minipig 601, 2 hr post patch removal, 24 hr
[7] = minipig 601, 24 hr post patch removal, 24 hr
[8] = minipig 601, 48 hr post patch removal, 24 hr
[9] = minipig 601, 72 hr post patch removal, 24 hr
[10] = minipig 601, 96 hr post patch removal, 24 hr
[11] = minipig 601, 120 hr post patch removal, 24 hr
[12] = minipig 601, before patch application
[13] = minipig 602, 2 hr post patch removal, 24 hr
[14] = minipig 602, 24 hr post patch removal, 24 hr
[15] = minipig 602, 48 hr post patch removal, 24 hr
[16] = minipig 602, 72 hr post patch removal, 24 hr
[17] = minipig 602, 96 hr post patch removal, 24 hr
[18] = minipig 602, 120 hr post patch removal, 24 hr
[19] = minipig 602, before patch application
[20] = minipig 603, 2 hr post patch removal, 24 hr
[21] = minipig 603, 24 hr post patch removal, 24 hr
[22] = minipig 603, 48 hr post patch removal, 24 hr
[23] = minipig 603, 72 hr post patch removal, 24 hr
[24] = minipig 603, 96 hr post patch removal, 24 hr
[25] = minipig 603, 120 hr post patch removal, 24 hr
[26] = minipig 603, before patch application

In the case of CCCCC[C@H](O)CC[C@@H]1[C@H]2Cc3cccc(OCC(=O)O)c3C[C@H]2C[C@H]1O [Treprostinil], the “cumulative skin permeability at 72 hours” value [1] is reported as “high”, the Edema score [2, 6] is reported as 0 and the Erythema score [2, 6] is reported as 1. It also gave an Edema score [2, 7] of 0, an Erythema score [2, 7] of 1 and an Edema score [2, 8] of 0. It also gave an Erythema score [2, 8] of 1, an Edema score [2, 9] of 0 and an Erythema score [2, 9] of 0. For the same compound, the Edema score [2, 10] was 0, the Erythema score [2, 10] was 0 and the Edema score [2, 11] was 0. The Erythema score [2, 11] was 0, the Edema score [2, 12] was 0 and the Erythema score [2, 12] was 0. It also gave an Edema score [2, 13] of 0, an Erythema score [2, 13] of 1 and an Edema score [2, 14] of 0. The Erythema score [2, 14] was 1, the Edema score [2, 15] was 0 and the Erythema score [2, 15] was 0. It also gave an Edema score [2, 16] of 0, an Erythema score [2, 16] of 0 and an Edema score [2, 17] of 0. The Erythema score [2, 17] was 0, the Edema score [2, 18] was 0 and the Erythema score [2, 18] was 0. The Edema score [2, 19] was 0, the Erythema score [2, 19] was 0 and the Edema score [2, 20] was 0. It also gave an Erythema score [2, 20] of 2, an Edema score [2, 21] of 0 and an Erythema score [2, 21] of 2. For the same compound, the Edema score [2, 22] was 0, the Erythema score [2, 22] was 0 and the Edema score [2, 23] was 0. For the same compound, the Erythema score [2, 23] was 0, the Edema score [2, 24] was 0 and the Erythema score [2, 24] was 0. For the same compound, the Edema score [2, 25] was 0, the Erythema score [2, 25] was 0 and the Edema score [2, 26] was 0. For the same compound, the Erythema score [2, 26] was 0, the “skin irritation (summary)” value ([2]; reservoir patch 10 mg treprostinil with isopropyl myristate and ethanol, in place 24 hr, three female minipigs) was “did not cause significant skin irritation” and the concentration at 72 hr ([3]; other: transdermal (reservoir-type patch), read-out: C72 hr) was 2.4 to 4.9 ng/mL. For the same compound, the Cmax ([3]; topical or ocular) was 20.8 to 27.6 ng/mL, the Tmax ([3]; topical or ocular) was 6 h and the AUC(0-t) ([3]; topical or ocular, read-out: AUC0-72) was 429 to 946 ng·h/mL. The half-life ([3]; topical or ocular, read-out: half-life (T1/2) during treatment) was 28 to 35 h, the systemic half-life ([4]; free acid, due to significant metabolism) was “very short” and the absolute oral bioavailability ([4]; treprostinil as the free acid, oral) was “less than 10%”. The “peak-to-trough ratio of plasma concentrations” value ([5]; administered by inhalation) was “large” and the “PAH patients who cannot take inhaled treprostinil due to irritation to the lungs” value ([5]; inhalation) was “about 50%”.
